Reference: patent US20240075046A1 (priority 2020, published 2024)
“Also recorded” adds a separate entry of the source.

Assays:
[1] = tested on: cleaved caspase-3 in T47D cells; assay: Cleaved caspase-3 western blot; type: cell-based; details: 8 hours, CANN14 4 μg/ml, tamoxifen 5 μM, relative to DMSO control
ZR-75-1 cells = assay: Apoptosis by Annexin V/PI staining, flow cytometry; type: cell-based; details: CANN14 4 μg/ml, tamoxifen 5 μM or combination
[2] = tested on: cleaved caspase-3 in ZR-75-1 cells; assay: Cleaved caspase-3 western blot; type: cell-based; details: 8 hours, CANN14 4 μg/ml, tamoxifen 5 μM, relative to DMSO control
T47D cells = assay: Apoptosis by Annexin V/PI staining, flow cytometry; type: cell-based; details: CANN14 4 μg/ml, tamoxifen 5 μM or combination
MCF7 cells [3] = details: extracts 4 μg/ml, 24 hours, tamoxifen 5 μM, alone or combined
[4] = tested on: cleaved caspase-3 in MCF7 cells; assay: Cleaved caspase-3 western blot; type: cell-based; details: 8 hours, CANN14 4 μg/ml, tamoxifen 5 μM, relative to DMSO control
MCF7 cells [5] = assay: In-vivo mouse model, subcutaneous MCF7 ectopic tumor; details: nude mice, MCF7 tumors; IP three times weekly; CANN14 25 mg/kg, tamoxifen 2 mg/kg
MCF7 cells [6] = type: cell-based
ESR1 = ESR1 expression level, real-time PCR in MCF7 cells; type: cell-based; details: 18 hours, FIG. 10C
Protocol: The expression level of ESR1, the gene encoding for ERα, using real-time PCR following 18 hours of CANN14 treatment was examined. RNA was extracted from 5×10^5 cells and isolated using TRI reagents (Sigma, UK) according to the manufacturer's protocol. The RNA was reverse transcribed with Maxima First Strand cDNA synthesis kit (Life Technologies, Burlington, Canada) and RT-qPCR was preformed using Taq-Man (Life Technologies Ltd, UK). The fold change of calculated compared to the housekeeping gene 18S, using the formula 2^(−ΔΔCT). DMSO was used as a control. […] The activity of ERα as a transcriptional regulator by assessing its binding to Estrogen Response Elements (ERE) following CANN14 treatment was then examined. MCF7 cells were transfected with ERE-luciferase plasmid and luciferase activity was measured.
Next, the effect of the three identified cannabinoids on ERα expression and activity was examined. ERα protein level in MCF7, T47D, and ZR-75-1 cells was measured following 18 hours treatment with either THC, CBN or CF2, separately or in combinations (FIGS. 7A-7B, 8A-8B, and 9A-9B, respectively). […] ESR1 expression level was lowest following treatment with CF2 alone (FIG. 10C).

ERα [7] = target: T1, ERα (Homo sapiens, UniProt P03372); assay: ERα protein level, western blot in MCF7 cells; type: cell-based; set-up: The intensity of ERα in the nucleus of MCF7 cells was reduced with time; endogenous in cells; host or cells: MCF7; details: 18 hours, single cannabinoids vs 1:25:1,000 combination, FIGS. 10A-10B
ERα [8] = target: T1, ERα; assay: Endometriosis model, estrogen receptor western blot in 12Z cell line; type: cell-based; set-up: endogenous in cells; host or cells: 12Z; details: 5 h, CF2 0.125 to 0.75 μg/mL
[9] = tested on: AR, CDC25, GREB1, PGR and TFF1; assay: Expression of genes upregulated by estradiol binding to ERα, real-time PCR in MCF7 cells; type: cell-based; details: 18 hours, FIGS. 10D-10H
[10] = tested on: Immortalized Human Endometriotic Cell Line (12Z); assay: Endometriosis model, Annexin V assay, cell viability; type: cell-based; details: 12Z cells; 24 hours; CF2 concentration of 1 μg/mL
Protocol: To determine the therapeutic effects of CF2 on endometriosis, an Immortalized Human Endometriotic Cell Line (12Z) was used. Cells were incubated in a 12 well plate, each containing 1×10^6 cells. The cells were treated with either vehicle, or CF2 (0.125 to 1 μg/mL each) for 24 hours. Apoptosis was assessed using the Annexin V assay as detailed above. Data are presented as mean±S.E.M (n=3) and statistically analyzed by two-way ANOVA (*p<0.05, ****p<0.0001).

T1 sequence (P03372 whole entry): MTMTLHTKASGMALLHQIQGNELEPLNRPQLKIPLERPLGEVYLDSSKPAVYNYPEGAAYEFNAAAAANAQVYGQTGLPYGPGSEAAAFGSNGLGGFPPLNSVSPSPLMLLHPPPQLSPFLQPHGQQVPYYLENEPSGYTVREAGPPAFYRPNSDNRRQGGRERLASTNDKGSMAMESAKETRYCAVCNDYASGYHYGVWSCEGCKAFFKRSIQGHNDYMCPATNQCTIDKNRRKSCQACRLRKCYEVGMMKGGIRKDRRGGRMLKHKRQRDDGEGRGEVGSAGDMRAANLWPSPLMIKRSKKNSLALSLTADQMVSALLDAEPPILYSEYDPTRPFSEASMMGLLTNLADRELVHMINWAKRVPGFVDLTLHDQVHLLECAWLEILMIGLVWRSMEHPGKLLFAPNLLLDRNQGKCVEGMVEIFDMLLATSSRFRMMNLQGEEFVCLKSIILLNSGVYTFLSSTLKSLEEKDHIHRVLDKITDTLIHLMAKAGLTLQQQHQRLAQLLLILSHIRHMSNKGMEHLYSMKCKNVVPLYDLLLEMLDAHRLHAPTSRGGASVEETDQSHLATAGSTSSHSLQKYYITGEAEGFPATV

SMILES: CC/C(=C(\c1ccccc1)c1ccc(OCCN(C)C)cc1)c1ccccc1 [tamoxifen]
- cleaved caspase-3, normalized intensity (treatment/control) [1]: increased induction of cleaved caspase-3
- % Apoptosis (ZR-75-1 cells): not affected
- cleaved caspase-3, normalized intensity (treatment/control) [2]: increased induction of cleaved caspase-3
- % Apoptosis (T47D cells): not affected
- % Cell death (MCF7 cells [3]): did not affect the viability of the cells
- cleaved caspase-3, normalized intensity (treatment/control) [4]: increased induction of cleaved caspase-3
- ectopic tumor volume / tumor size (MCF7 cells [5]): trend of smaller tumor sizes
- % Apoptosis (MCF7 cells [6]; MCF7 cells, CANN14 4 μg/ml, tamoxifen 5 μM or combination): not affected

SMILES: CCCCCc1cc(O)c(C/C=C(/C)CCC=C(C)C)c(O)c1OC(C)=O [CF2]
- ESR1 expression level (ESR1): lowest
- ERα protein level (ERα [7]): significantly reduced the most; also recorded: reduces ERα protein level
- ERα protein level (ERα [8]): significantly reduced; also recorded: reduces
- expression levels of ERα target genes [9]: reduced to the lowest level compared to the control
- cell viability (% Live cells) [10]: statistically significant reduction in cell viability; also recorded: reduces cell viability
- apoptotic effect compared with the original 1:25:1,000 combination of CF2, CBN, and THC (MCF7 cells [6]): same apoptotic effect as the original combination of the three phytocannabinoids
- apoptotic effect compared with the CANN14 whole extract (MCF7 cells [6]; MCF7 cells, higher concentrations of CF2, in combination with tamoxifen, FIG. 4G): significantly superior to the CANN14 whole extract

SMILES: CCCCCc1cc(O)c2c(c1)OC(C)(C)c1ccc(C)cc1-2 [CBN, cannabinol, reference compound]
- expression levels of ERα target genes [9]: reduced to the lowest level compared to the control
